ChEMBL document CHEMBL1201861, “Genomics of Drug Sensitity in Cancer screening data, Wellcome Trust Sanger Institute”

Experiments:
Experiment in all cases: cells
COLO-792 = type: functional, cell-based, Homo sapiens; conditions: Homo sapiens, COLO-792
Description: SANGER: Inhibition of human COLO-792 cell growth in a cell viability assay.

COLO-824 = type: functional, cell-based, Homo sapiens; conditions: Homo sapiens, COLO-824
Description: SANGER: Inhibition of human COLO-824 cell growth in a cell viability assay.

D-263MG = type: functional, cell-based, Homo sapiens; conditions: Homo sapiens, D-263MG
Description: SANGER: Inhibition of human D-263MG cell growth in a cell viability assay.

Daoy = type: functional, cell-based, Homo sapiens; conditions: Homo sapiens, Daoy;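 also: daoy cell growth inhibition, read out as cell viability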
Description: SANGER: Inhibition of human Daoy cell growth in a cell viability assay.

EFO-21 = type: functional, cell-based, Homo sapiens; conditions: Homo sapiens, EFO-21;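 also: growth inhibition of EFO-21 cells measured with a viability assay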
Description: SANGER: Inhibition of human EFO-21 cell growth in a cell viability assay.

ES7 = type: functional, cell-based, Homo sapiens; conditions: Homo sapiens, ES7;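 also: growth inhibition of cultured human ES7 cells, read out as cell viability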
Description: SANGER: Inhibition of human ES7 cell growth in a cell viability assay.

ES8 = type: functional, cell-based, Homo sapiens; conditions: Homo sapiens, ES8;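 also: growth inhibition of human ES8 cells, read out with a cell viability assay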
Description: SANGER: Inhibition of human ES8 cell growth in a cell viability assay.

EW-1 = type: functional, cell-based, Homo sapiens; conditions: Homo sapiens, EW-1
Description: SANGER: Inhibition of human EW-1 cell growth in a cell viability assay.

EW-13 = type: functional, cell-based; conditions: Homo sapiens;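 also: growth inhibition of EW-13 cells, read out with a cell viability assay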
Description: SANGER: Inhibition of human EW-13 cell growth in a cell viability assay.

HCC1806 = type: functional, cell-based, Homo sapiens; conditions: Homo sapiens, HCC1806;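 also: growth inhibition of the cancer cell line, determined with a cell viability assay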
Description: SANGER: Inhibition of human HCC1806 cell growth in a cell viability assay.

HCC1937 = type: functional, cell-based, Homo sapiens; conditions: Homo sapiens, HCC1937;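 also: growth inhibition measured with a cell viability read-out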
Description: SANGER: Inhibition of human HCC1937 cell growth in a cell viability assay.

HCC70 = type: functional, cell-based, Homo sapiens; conditions: Homo sapiens, HCC70;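 also: cell viability assay measuring how strongly the compound suppresses proliferation of HCC70 cells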
Description: SANGER: Inhibition of human HCC70 cell growth in a cell viability assay.

HD-MY-Z = type: functional, cell-based, Homo sapiens; conditions: Homo sapiens, HD-MY-Z;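 also: growth inhibition of HD-MY-Z cells, read out with a cell viability assay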
Description: SANGER: Inhibition of human HD-MY-Z cell growth in a cell viability assay.

HGC-27 = type: functional, cell-based, Homo sapiens; conditions: Homo sapiens, HGC-27;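 also: growth inhibition of human HGC-27 cells, read out in a cell viability assay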
Description: SANGER: Inhibition of human HGC-27 cell growth in a cell viability assay.

HuO-3N1 = type: functional, cell-based, Homo sapiens; conditions: Homo sapiens, HuO-3N1;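 also: cell viability readout used to measure how strongly compounds suppress proliferation of human HuO-3N1 cells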
Description: SANGER: Inhibition of human HuO-3N1 cell growth in a cell viability assay.

J82 = type: functional, cell-based; conditions: Homo sapiens;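 also: growth inhibition of J82 cells, read out with a cell viability assay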
Description: SANGER: Inhibition of human J82 cell growth in a cell viability assay.

KU812 cell line = type: functional, cell-based; conditions: Homo sapiens;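 also: growth inhibition of KU812 cells, read out with a cell viability assay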
Description: SANGER: Inhibition of human KU812 cell growth in a cell viability assay.

KYSE-270 = type: functional, cell-based, Homo sapiens; conditions: Homo sapiens, KYSE-270;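 also: cell growth inhibition measured with a viability assay in the human KYSE-270 line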
Description: SANGER: Inhibition of human KYSE-270 cell growth in a cell viability assay.

LoVo = type: functional, cell-based; conditions: Homo sapiens;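 also: growth inhibition of human LoVo cells, read out with a cell viability assay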
Description: SANGER: Inhibition of human LoVo cell growth in a cell viability assay.

MDA-MB-157 = type: functional, cell-based, Homo sapiens; conditions: Homo sapiens, MDA-MB-157
Description: SANGER: Inhibition of human MDA-MB-157 cell growth in a cell viability assay.

MDA-MB-231 = type: functional, cell-based, Homo sapiens; conditions: Homo sapiens, MDA-MB-231
Description: SANGER: Inhibition of human MDA-MB-231 cell growth in a cell viability assay.

MG-63 = type: functional, cell-based, Homo sapiens; conditions: Homo sapiens, MG-63;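 also: growth inhibition of human MG-63 cells, read out with a cell viability assay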
Description: SANGER: Inhibition of human MG-63 cell growth in a cell viability assay.

MKN-7 = type: functional, cell-based, Homo sapiens; conditions: Homo sapiens, MKN-7;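 also: growth inhibition of MKN-7 cells, read out with a cell viability assay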
Description: SANGER: Inhibition of human MKN7 cell growth in a cell viability assay.

MOLT-4 = type: functional, cell-based; conditions: Homo sapiens;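 also: growth inhibition of MOLT-4 cells, determined with a cell viability readout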
Description: SANGER: Inhibition of human MOLT-4 cell growth in a cell viability assay.

NB14 = type: functional, cell-based; conditions: Homo sapiens;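 also: growth inhibition of NB14 cells measured with a cell viability assay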
Description: SANGER: Inhibition of human NB14 cell growth in a cell viability assay.

NCI-H1155 = type: functional, cell-based; conditions: Homo sapiens;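 also: cell growth inhibition measured by a viability assay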
Description: SANGER: Inhibition of human NCI-H1155 cell growth in a cell viability assay.

NCI-H1355 = type: functional, cell-based, Homo sapiens; conditions: Homo sapiens, NCI-H1355;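 also: growth inhibition of human NCI-H1355 cells, read out by a cell viability assay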
Description: SANGER: Inhibition of human NCI-H1355 cell growth in a cell viability assay.

NCI-H2030 = type: functional, cell-based, Homo sapiens; conditions: Homo sapiens, NCI-H2030;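 also: growth inhibition of human NCI-H2030 cells, read out by a cell viability assay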
Description: SANGER: Inhibition of human NCI-H2030 cell growth in a cell viability assay.

NCI-H28 = type: functional, cell-based, Homo sapiens; conditions: Homo sapiens, NCI-H28;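 also: growth inhibition of human NCI-H28 cells, read out as cell viability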
Description: SANGER: Inhibition of human NCI-H28 cell growth in a cell viability assay.

NTERA-2-cl-D1 = type: functional, cell-based, Homo sapiens; conditions: Homo sapiens, NTERA-2-cl-D1;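 also: inhibition of cell growth, measured with a cell viability assay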
Description: SANGER: Inhibition of human NTERA-S-cl-D1 cell growth in a cell viability assay.

PANC-03-27 = type: functional, cell-based, Homo sapiens; conditions: Homo sapiens, PANC-03-27
Description: SANGER: Inhibition of human PANC-03-27 cell growth in a cell viability assay.

RMG-I = type: functional, cell-based, Homo sapiens; conditions: Homo sapiens, RMG-I;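 also: growth inhibition of human RMG-I cells, read out with a cell viability assay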
Description: SANGER: Inhibition of human RMG-I cell growth in a cell viability assay.

RO82-W-1 = type: functional, cell-based, Homo sapiens; conditions: Homo sapiens, RO82-W-1;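 also: growth inhibition of human RO82-W-1 cells, measured with a cell viability assay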
Description: SANGER: Inhibition of human RO82-W-1 cell growth in a cell viability assay.

SNU-C2B = type: functional, cell-based, Homo sapiens; conditions: Homo sapiens, SNU-C2B;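 also: cell viability readout used to measure compound-driven suppression of SNU-C2B cell proliferation, IC50 marking half-maximal growth inhibition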
Description: SANGER: Inhibition of human SNU-C2B cell growth in a cell viability assay.

SW1088 = type: functional, cell-based, Homo sapiens; conditions: Homo sapiens, SW1088;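 also: growth inhibition of human SW1088 cells, read out by a cell viability assay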
Description: SANGER: Inhibition of human SW1088 cell growth in a cell viability assay.

SW48 = type: functional, cell-based, Homo sapiens; conditions: Homo sapiens, SW48;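 also: growth inhibition of SW48 cells, read out with a cell viability assay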
Description: SANGER: Inhibition of human SW48 cell growth in a cell viability assay.

SW982 = type: functional, cell-based; conditions: Homo sapiens;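 also: growth inhibition of SW982 cells, read out with a cell viability assay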
Description: SANGER: Inhibition of human SW982 cell growth in a cell viability assay.

769-P = type: functional, cell-based, Homo sapiens; conditions: Homo sapiens, 769-P
Description: SANGER: Inhibition of human 769-P cell growth in a cell viability assay.

A2058 = type: functional, cell-based; conditions: Homo sapiens;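 also: reduction of A2058 cell growth, read out with a viability assay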
Description: SANGER: Inhibition of human A2058 cell growth in a cell viability assay.

ABC-1 = type: functional, cell-based, Homo sapiens; conditions: Homo sapiens, ABC-1;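 also: growth inhibition of human ABC-1 cells, read out by a cell viability assay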
Description: SANGER: Inhibition of human ABC-1 cell growth in a cell viability assay.

BT-474 = type: functional, cell-based, Homo sapiens; conditions: Homo sapiens, BT-474
Description: SANGER: Inhibition of human BT-474 cell growth in a cell viability assay.

C2BBe1 = type: functional, cell-based, Homo sapiens; conditions: Homo sapiens, C2BBe1;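 also: growth inhibition of C2BBe1 cells, read out through a viability assay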
Description: SANGER: Inhibition of human C2BBe1 cell growth in a cell viability assay.

CAKI-1 = type: functional, cell-based, Homo sapiens; conditions: Homo sapiens, CAKI-1;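 also: growth inhibition of CAKI-1 cells, measured by a cell viability assay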
Description: SANGER: Inhibition of human CAKI-1 cell growth in a cell viability assay.

TE-6 = type: functional, cell-based, Homo sapiens; conditions: Homo sapiens, TE-6;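 also: growth inhibition of TE-6 cells, read out with a cell viability assay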
Description: SANGER: Inhibition of human TE-6 cell growth in a cell viability assay.

TYK-nu = type: functional, cell-based, Homo sapiens; conditions: Homo sapiens, TYK-nu;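 also: growth inhibition of human TYK-nu cells, read out by a cell viability assay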
Description: SANGER: Inhibition of human TYK-nu cell growth in a cell viability assay.

YAPC = type: functional, cell-based, Homo sapiens; conditions: Homo sapiens, YAPC;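 also: growth inhibition of YAPC cells, measured with a cell viability assay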
Description: SANGER: Inhibition of human YAPC cell growth in a cell viability assay.

COLO-320-HSR = type: functional, cell-based; conditions: Homo sapiens;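 also: growth inhibition of COLO-320-HSR cells, determined with a cell viability assay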
Description: SANGER: Inhibition of human COLO-320-HSR cell growth in a cell viability assay.

COLO-668 = type: functional, cell-based, Homo sapiens; conditions: Homo sapiens, COLO-668
Description: SANGER: Inhibition of human COLO-668 cell growth in a cell viability assay.

COLO-680N = type: functional, cell-based, Homo sapiens; conditions: Homo sapiens, COLO-680N;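 also: cell viability assay used to measure inhibition of COLO-680N cell growth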
Description: SANGER: Inhibition of human COLO-680N cell growth in a cell viability assay.

O=C1N=C(NCc2cccs2)S/C1=C\c1ccc2ncccc2c1
IC50 (COLO-792): > 5000 nM | IC50 (COLO-824): > 5000 nM | IC50 (D-263MG): > 5000 nM | IC50 (Daoy): > 5000 nM | IC50 (EFO-21): > 5000 nM | IC50 (ES7): > 5000 nM | IC50 (ES8): > 5000 nM | IC50 (EW-1): > 5000 nM | IC50 (EW-13): > 5000 nM | IC50 (HCC1806): > 5000 nM | IC50 (HCC1937): > 5000 nM | IC50 (HCC70): > 5000 nM | IC50 (HD-MY-Z): > 5000 nM | IC50 (HGC-27): > 5000 nM | IC50 (HuO-3N1): > 5000 nM | IC50 (J82): > 5000 nM | IC50 (KU812 cell line): > 5000 nM | IC50 (KYSE-270): > 5000 nM | IC50 (LoVo): > 5000 nM | IC50 (MDA-MB-157): > 5000 nM | IC50 (MDA-MB-231): > 5000 nM | IC50 (MG-63): > 5000 nM | IC50 (MKN-7): > 5000 nM | IC50 (MOLT-4): > 5000 nM | IC50 (NB14): > 5000 nM | IC50 (NCI-H1155): > 5000 nM | IC50 (NCI-H1355): > 5000 nM | IC50 (NCI-H2030): > 5000 nM | IC50 (NCI-H28): > 5000 nM | IC50 (NTERA-2-cl-D1): > 5000 nM | IC50 (PANC-03-27): > 5000 nM | IC50 (RMG-I): > 5000 nM | IC50 (RO82-W-1): > 5000 nM | IC50 (SNU-C2B): > 5000 nM | IC50 (SW1088): > 5000 nM | IC50 (SW48): > 5000 nM | IC50 (SW982): > 5000 nM | IC50 (769-P): > 5000 nM | IC50 (A2058): > 5000 nM | IC50 (ABC-1): > 5000 nM | IC50 (BT-474): > 5000 nM | IC50 (C2BBe1): > 5000 nM | IC50 (CAKI-1): > 5000 nM | IC50 (TE-6): > 5000 nM | IC50 (TYK-nu): > 5000 nM | IC50 (YAPC): > 5000 nM | IC50 (COLO-320-HSR): > 5000 nM | IC50 (COLO-668): > 5000 nM | IC50 (COLO-680N): > 5000 nM

COc1ccc(-c2ccc3c(N4CCOC[C@@H]4C)nc(N4CCOC[C@@H]4C)nc3n2)cc1CO [AZD-8055]
IC50 (COLO-792): > 2000 nM | IC50 (COLO-824): > 2000 nM | IC50 (D-263MG): 1330 nM | IC50 (Daoy): 1100 nM | IC50 (EFO-21): > 2000 nM | IC50 (ES7): 274 nM | IC50 (ES8): 366 nM | IC50 (EW-1): 1610 nM | IC50 (EW-13): > 2000 nM | IC50 (HCC1806): 933 nM | IC50 (HCC1937): > 2000 nM | IC50 (HCC70): > 2000 nM | IC50 (HD-MY-Z): 841 nM | IC50 (HGC-27): 264 nM | IC50 (HuO-3N1): 384 nM | IC50 (J82): > 2000 nM | IC50 (KU812 cell line): 80.4 nM | IC50 (KYSE-270): 1570 nM | IC50 (LoVo): 202 nM | IC50 (MDA-MB-157): 678 nM | IC50 (MDA-MB-231): 1720 nM | IC50 (MG-63): 274 nM | IC50 (MKN-7): 1220 nM | IC50 (MOLT-4): 677 nM | IC50 (NB14): 164 nM | IC50 (NCI-H1155): > 2000 nM | IC50 (NCI-H1355): 539 nM | IC50 (NCI-H2030): 1240 nM | IC50 (NCI-H28): 587 nM | IC50 (NTERA-2-cl-D1): 701 nM | IC50 (PANC-03-27): 1030 nM | IC50 (RMG-I): > 2000 nM | IC50 (RO82-W-1): 1520 nM | IC50 (SNU-C2B): > 2000 nM | IC50 (SW1088): 1370 nM | IC50 (SW48): 1110 nM | IC50 (SW982): 685 nM | IC50 (769-P): > 2000 nM | IC50 (A2058): 974 nM | IC50 (ABC-1): > 2000 nM | IC50 (BT-474): 1780 nM | IC50 (C2BBe1): 1170 nM | IC50 (CAKI-1): 746 nM | IC50 (TE-6): 1710 nM | IC50 (TYK-nu): 319 nM | IC50 (YAPC): > 2000 nM | IC50 (COLO-320-HSR): > 2000 nM | IC50 (COLO-668): > 2000 nM | IC50 (COLO-680N): 1820 nM
